Assays:
[1] = test system: pseudotyped NL-Bal viruses; type: cell-based, HIV; conditions: pseudotyped NL-Bal virus, JC53-BL cells, 3 day incubation, inhibition of luciferase activity
Experimental: For the production of pseudotyped NL-Bal viruses, plasmid pNL4-3Δenv (HIV pNL4-3 genomic construct with a deletion within the env gene) and pcDNA3.1/NL-BAL env [pcDNA3.1 plasmid containing NL-Bal env gene (obtained from NIBSC Centralized Facility for AIDS Reagents)] were co-transfected into the HEK 293FT cell line (Invitrogen), cultured in Dulbecco's modified […] (DMEM) containing 10% fetal calf serum (FCS), 100 U/mL Penicillin, 100 μg/mL Streptomycin, 2 mM L-glutamine and 0.5 mg/mL geniticin (all media from Invitrogen/Gibco). The supernatants containing pseudotyped viruses were harvested two days following transfection, and cellular debris was removed by filtration through a 0.45 μm pore size PES (polyethersulfone) filter (Nalgene) and stored at −80° C. in aliquots. For normalization in assay performance, virus stock aliquots were used to infect JC53-BL (US NIH Aids Reagent Program) cells yielding approximately 1.5×10^5 RLU (relative light units) per well. Test antifusogenic peptide-anti-CCR5 antibody conjugates, reference antibodies and reference antifusogenic peptides (T-20, T-1249, T-651 and T-2635) were serially diluted in 96-well plates. The assay was carried out in quadruplicates. Each plate contained cell control and virus control wells. The equivalent of 1.5×10^5 RLU of virus stocks were added to each well, then 2.5×10^4 JC53-BL cells were added to each well, with a final assay volume of 200 μl per well. After 3 day incubation at 37° C., 90% Relative Humidity, and 5% CO2, media were aspirated and 50 μl of Steady-Glo® Luciferase Assay System (Promega) was added to each well. The assay plates were read on a Luminometer (Luminoskan, Thermo Electron Corporation) after 10 minutes of incubation at room temperature. Percent inhibition of luciferase activity was calculated for each dose point after subtracting the background, and IC50 and IC90-values were determined by using XLfit curve fitting software for Excel (version 3.0.5 Build12; […]).

[2] = test system: CCR5 mutant K171A or E172A; experiment: Epitope binding by alanine scanning (epitope mapping); set-up: species or system human; conditions: 100% epitope binding is defined for wild-type CCR5
Text: Epitope binding is investigated by using alanine scanning according to the method described by W. C. Olson et al. (J. Virol. (1999) 73:4145-55) for epitope mapping. […] Epitope binding for antibody C is found to be 20% for CCR5 mutant K171A or E172A (glu 172 is mutated to ala). 100% epitope binding is defined for wild-type CCR5. A further preferred anti-CCR5 antibody binds to the same epitope as antibody C binds.

HIV = HIV assays; type: cell-based; conditions: comparison with antibody 2D7

enfuvirtide
Antiviral activity IC50 [1]: 0.206 µg/mL
Antiviral activity IC90 [1]: 3.955 µg/mL

CC[C@H](C)[C@H](NC(=O)[C@H](C)NC(=O)[C@H](CCCNC(=N)N)NC(=O)[C@H](CC(=O)O)NC(=O)[C@H](Cc1c[nH]c2ccccc12)NC(=O)[C@H](C)NC(=O)[C@H](CCC(=O)O)NC(=O)[C@H](Cc1c[nH]c2ccccc12)NC(=O)[C@@H](NC(=O)[C@@H](NC(C)=O)[C@@H](C)O)[C@@H](C)O)C(=O)N[C@@H](C)C(=O)N[C@@H](CCC(=O)O)C(=O)N[C@@H](Cc1ccc(O)cc1)C(=O)N[C@@H](C)C(=O)N[C@@H](C)C(=O)N[C@@H](CCCNC(=N)N)C(=O)N[C@H](C(=O)N[C@@H](CCC(=O)O)C(=O)N[C@@H](C)C(=O)N[C@@H](CC(C)C)C(=O)N[C@H](C(=O)N[C@@H](CCCNC(=N)N)C(=O)N[C@@H](C)C(=O)N[C@@H](C)C(=O)N[C@@H](CCC(N)=O)C(=O)N[C@@H](CCC(=O)O)C(=O)N[C@@H](CCC(N)=O)C(=O)N[C@@H](CCC(N)=O)C(=O)N[C@@H](CCC(=O)O)C(=O)N[C@@H](CCCCN)C(=O)N[C@@H](CC(N)=O)C(=O)N[C@@H](CCC(=O)O)C(=O)N[C@@H](C)C(=O)N[C@@H](C)C(=O)N[C@@H](CC(C)C)C(=O)N[C@@H](CCCNC(=N)N)C(=O)N[C@@H](CCC(=O)O)C(=O)N[C@@H](CC(C)C)C(N)=O)[C@@H](C)CC)[C@@H](C)CC [T-2635]
Antiviral activity IC50 [1]: 0.014 µg/mL
Antiviral activity IC90 [1]: 0.161 µg/mL

CC[C@H](C)[C@H](NC(=O)[C@H](CCC(N)=O)NC(=O)[C@H](C)NC(=O)[C@H](CCC(N)=O)NC(=O)[C@H](CCC(=O)O)NC(=O)[C@H](CC(C)C)NC(=O)[C@H](CC(C)C)NC(=O)[C@H](C)NC(=O)[C@@H](NC(=O)[C@@H](NC(=O)[C@H](CCCCN)NC(=O)[C@H](CCC(N)=O)NC(=O)[C@H](CCC(=O)O)NC(=O)[C@H](Cc1c[nH]c2ccccc12)NC(=O)[C@H](CCC(=O)O)NC(=O)[C@H](CCC(N)=O)NC(=O)[C@H](Cc1c[nH]c2ccccc12)NC(C)=O)[C@@H](C)CC)[C@@H](C)O)C(=O)N[C@@H](CCC(N)=O)C(=O)N[C@@H](CCC(N)=O)C(=O)N[C@@H](CCC(=O)O)C(=O)N[C@@H](CCCCN)C(=O)N[C@@H](CC(N)=O)C(=O)N[C@@H](CCC(=O)O)C(=O)N[C@@H](Cc1ccc(O)cc1)C(=O)N[C@@H](CCC(=O)O)C(=O)N[C@@H](CC(C)C)C(=O)N[C@@H](CCC(N)=O)C(=O)N[C@@H](CCCCN)C(=O)N[C@@H](CC(C)C)C(=O)N[C@@H](CC(=O)O)C(=O)N[C@@H](CCCCN)C(=O)N[C@@H](Cc1c[nH]c2ccccc12)C(=O)N[C@@H](C)C(=O)N[C@@H](CO)C(=O)N[C@@H](CC(C)C)C(=O)N[C@@H](Cc1c[nH]c2ccccc12)C(=O)N[C@@H](CCC(=O)O)C(=O)N[C@@H](Cc1c[nH]c2ccccc12)C(=O)N[C@@H](Cc1ccccc1)C(N)=O [T-1249]
Antiviral activity IC50 [1]: 0.011 µg/mL
Antiviral activity IC90 [1]: 0.09 µg/mL

B1: Antibody C: anti-CCR5 antibody, variable domains SEQ ID NO:5, 6 (antibody, V domains shown)
VH: QVQLKQSGPGLVRPSQSLSITCTVSGFPLGIFGVHWVRQSPGKGLEWLGVIWKGGNTDYNAAFMSRLRITKDNSKSQVFFRMNSLQTDDTAIYYCAKVNLADAMDYWGQGTSVIVSS
VL: DIQMTQSPASLSASVGETVTITCRASGNIHGYLAWFQQKQGKSPQLLVYNTKTLAEGVPSRFSGSGSGTQFSLKINSLQPEDFGNYYCQHHYDLPRTFGGGTKLEIKR
modifications: mouse
Epitope binding [2]: 20%
IC50 values compared with antibody 2D7 (HIV): lower IC50 values than antibody 2D7

From patent US7951920B2, “Conjugate of an antibody against CCR5 and an antifusogenic peptide” (Roche Palo Alto LLC, priority 2006, dated 2011)
